Source: US11400083B2, “CXCR4 antagonists with amino acid skeleton, preparation therefor and biomedical use thereof” (Tsinghua University, priority 2017, dated 2022)

Target: T1, CXCR4 (Homo sapiens, UniProt P61073)
Assay: Inhibition of intracellular calcium mobilization (SupT1 cells, SDF-1α, Fluo-4)
Assay type: cell-based
Conditions: 50 nM SDF-1α, compound at 0.2 μM, FIG. 2
Protocol: 3. Experimental method: the cell line used in this assay was SupT1. Prior to the experiment, the cells were collected and washed with an experimental buffer (an HBSS buffer containing 20 mM HEPES), and then incubated with a buffer containing 4 μM Fluo-4 and 1 mM probenecid sodium for 30 min at 37° C., after which the residual dye was washed away, and the cells were suspended to a concentration of 2×10^6 cells/ml. Afterwards, 200 μl of the cell suspension was taken and added to a black 96-well plate, and absorption values of the cells at 494 nmEX/516 nmEM were recorded. Subsequently, different concentrations of compound were added and mixed uniformly, and the baseline was recorded. Thereafter, 50 nM of the SDF-1α was added and mixed uniformly. Signals of calcium ions were recorded, and the differences in fluorescence intensity between a group without addition of the compound and groups added with different concentrations of the compound were observed. 4.

T1 sequence (P61073 whole entry): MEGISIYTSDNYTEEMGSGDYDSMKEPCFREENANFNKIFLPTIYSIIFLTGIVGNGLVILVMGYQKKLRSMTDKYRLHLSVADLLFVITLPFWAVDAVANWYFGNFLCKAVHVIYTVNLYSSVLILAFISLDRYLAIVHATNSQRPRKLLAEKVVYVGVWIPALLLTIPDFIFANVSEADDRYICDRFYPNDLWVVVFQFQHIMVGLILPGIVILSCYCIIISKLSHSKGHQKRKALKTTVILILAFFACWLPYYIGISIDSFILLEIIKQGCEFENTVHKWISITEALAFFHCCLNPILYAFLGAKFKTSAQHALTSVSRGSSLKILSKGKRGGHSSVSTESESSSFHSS

Inhibition of signal of calcium mobilization | Compound
completely inhibit | N=C(N)NCCC[C@H](NCc1ccccn1)C(=O)NCc1ccc(CNCCCNC2CCCCC2)cc1 [Compound 1]

Same assay, conditions: 50 nM SDF-1α, compound at 1.0 μM, FIG. 3

Inhibition of signal of calcium mobilization | Compound
fails to inhibit | c1cc(CN2CCCNCCNCCCNCC2)ccc1CN1CCCNCCNCCCNCC1 [AMD3100, plerixafor, reference compound]

Test system: not listed separately
Assay: Cytotoxicity assay (CellTiter 96, 72 h)
Assay type: cell-based
Conditions: human; HEK293 cells, 72 hours incubation
Protocol: 1. Experimental method: the experiment was carried out using HEK293 cell line. The HEK293 cells cultured in DMEM medium (containing 10% fetal bovine serum, 100 IU penicillin and 0.1 mg/ml streptomycin) were trypsinized, counted, and plated in a 96-well plate with each well containing 100 μl suspension and including 3×10^3 cells in total. After culturation in a constant-temperature incubator containing 5% CO2 at 37° C. overnight, different concentrations of the compound were added. After 72 hours of incubation in total, 20 μl CellTiter 96 was added to further incubate for 1 to 4 hours, and then an absorption value at 490 nm was measured on a microplate reader. The changes in cell viability prior to and subsequent to the addition of the compound were observed by comparing the values of the blank control group and the experimental group. 2.

Compound | IC50 at 72 h [µM]
N=C(N)NCCC[C@H](NCc1ccccn1)C(=O)NCc1ccc(CNCCCNC2CCCCC2)cc1 [Compound 1] | > 50
N=C(N)NCCC[C@H](NC(=O)c1ccc(F)cc1)C(=O)NCc1ccc(CNCCCNC2CCCCC2)cc1 [Compound 2] | > 50
N=C(N)NCCC[C@H](NCc1ccccn1)C(=O)NCc1ccc(CNC2CCCCC2)cc1 [Compound 4] | > 50
N=C(N)NCCC[C@H](N)C(=O)NCc1ccc(CNCCCNC2CCCCC2)cc1 [Compound 5] | > 50
N=C(N)NCCC[C@@H](NCc1ccccn1)C(=O)NCc1ccc(CNCCCNC2CCCCC2)cc1 [Compound 6] | > 50
N=C(N)NCCC[C@H](NC(=O)C1CCC(F)(F)CC1)C(=O)NCc1ccc(CNCCCNC2CCCCC2)cc1 [Compound 7] | > 50
N=C(N)NCCC[C@H](NCc1ccc(F)cc1)C(=O)NCc1ccc(CNCCCNC2CCCCC2)cc1 [Compound 8] | > 50
CN(C)c1ccc(CN[C@@H](CCCNC(=N)N)C(=O)NCc2ccc(CNCCCNC3CCCCC3)cc2)cc1 [Compound 9] | > 50
N=C(N)NCCC[C@H](NCc1cccc2ccccc12)C(=O)NCc1ccc(CNCCCNC2CCCCC2)cc1 [Compound 10] | > 50
N=C(N)NCCC[C@H](NCc1ccc(-c2ccccc2)cc1)C(=O)NCc1ccc(CNCCCNC2CCCCC2)cc1 [Compound 11] | > 50
N=C(N)NCCC[C@H](NCc1cc(C(F)(F)F)cc(C(F)(F)F)c1)C(=O)NCc1ccc(CNCCCNC2CCCCC2)cc1 [Compound 12] | > 50
N=C(N)NCCC[C@H](NCc1ncc[nH]1)C(=O)NCc1ccc(CNCCCNC2CCCCC2)cc1 [Compound 13] | > 50
N=C(N)NCCC[C@H](NC1CCCCC1)C(=O)NCc1ccc(CNCCCNC2CCCCC2)cc1 [Compound 15] | > 20
N=C(N)NCCC[C@H](NCC1CCCCC1)C(=O)NCc1ccc(CNCCCNC2CCCCC2)cc1 [Compound 16] | > 50
NCCCC[C@H](NCc1ccccn1)C(=O)NCc1ccc(CNCCCNC2CCCCC2)cc1 [Compound 17] | > 50
CC(C)NCCCC[C@H](NCc1ccccn1)C(=O)NCc1ccc(CNCCCNC2CCCCC2)cc1 [Compound 18] | > 50
O=C(NCc1ccc(CNCCCNC2CCCCC2)cc1)[C@H](CCCCNC1CCCCC1)NCc1ccccn1 [Compound 19] | > 50
O=C(NCc1ccc(CNCCCNC2CCCCC2)cc1)[C@H](CCCNC1CCCCC1)NCc1ccccn1 [Compound 20] | > 50
O=C(NCc1ccc(CNCCCNC2CCCCC2)cc1)[C@H](Cc1c[nH]cn1)NCc1ccccn1 [Compound 21] | > 50
O=C(O)C[C@H](NCc1ccccn1)C(=O)NCc1ccc(CNCCCNC2CCCCC2)cc1 [Compound 22] | > 50
C[C@H](NCc1ccccn1)C(=O)NCc1ccc(CNCCCNC2CCCCC2)cc1 [Compound 23] | > 50
O=C(NCc1ccc(CNCCCNC2CCCCC2)cc1)[C@H](CO)NCc1ccccn1 [Compound 24] | > 50
O=C(NCc1ccc(CNCCCNC2CCCCC2)cc1)[C@H](Cc1ccc2ccccc2c1)NCc1ccccn1 [Compound 25] | > 10
O=C(NCc1ccc(CNCCCNC2CCCCC2)cc1)[C@H](Cc1c[nH]c2ccccc12)NCc1ccccn1 [Compound 26] | > 50
O=C(NCc1ccc(CNCCCNC2CCCCC2)cc1)[C@H](Cc1ccc(O)cc1)NCc1ccccn1 [Compound 27] | > 50
CC(C)C[C@H](NCc1ccccn1)C(=O)NCc1ccc(CNCCCNC2CCCCC2)cc1 [Compound 28] | > 50
O=C(NCc1ccc(CNCCCNC2CCCCC2)cc1)[C@@H]1CCCN1Cc1ccccn1 [Compound 29] | > 50
O=C(NCc1ccc(CNCCCNC2CCCCC2)cc1)[C@@H]1Cc2ccccc2CN1Cc1ccccn1 [Compound 30] | > 20
N=C(N)NCCC[C@H](NC(=O)[C@@H](N)Cc1ccc(O)cc1)C(=O)NCc1ccc(CNCCCNC2CCCCC2)cc1 [Compound 31] | > 50
N=C(N)NCCC[C@H](N)C(=O)N[C@@H](Cc1ccc2ccccc2c1)C(=O)NCc1ccc(CNCCCNC2CCCCC2)cc1 [Compound 32] | > 50

Target: T1, CXCR4
Assay: Binding affinity assay on CXCR4 receptor protein (inhibition of 12G5 monoclonal antibody binding, CHO cells stably transfected with CXCR4)
Set-up: expressed in transfected cells; host or cells: CHO cells, stably transfected (G418 selection)
Conditions: 40 min; 0.1 μM compound; inhibition of 12G5 antibody binding to CXCR4 on CHO-CXCR4 cells; read-out: Inhibition ratio interval of compounds at 0.1 μM
Protocol: 3. Experimental method: the cell line used for the affinity activity assay of the CXCR4 was a CHO cell line constructed in vitro and stably transfected with CXCR4. The CHO cell line cultured in DMEM medium (containing 10% fetal bovine serum, 100 IU penicillin, 0.1 mg/ml streptomycin and 0.2 mg/ml G418) was trypsinized, washed, counted, and then suspended in an FACS buffer (PBS containing 0.5% BSA and 0.05% NaN3), followed by being plated in a 96-well plate. Each cell contains 100 μl of the reaction system, which includes 5×10^5 cells, 250 ng/ml 12G5 monoclonal antibody and different concentrations of compound for detection. After incubated on ice for 40 min and washed with the FACS buffer, the reaction system was added with the secondary antibody (anti-mouse FITC-labeled IgG) for further incubation on ice for 30 min and then washed twice with the FACS buffer. Absorption values at 485 nmEX/535 nmEM were measured on a microplate reader (PerkinElmer), and fluorescence intensities were recorded. For each compound, a percentage of the compound that inhibits the binding of the 12G5 monoclonal antibody to the receptor CXCR4, i.e. a binding inhibition ratio at 0.1 μM, was calculated. 4. […] The inhibition ratio of the compounds is divided into the following intervals: 75% to 100% for A, 50% to 74% for B, 25% to 49% for C, and 0 to 24% for D.

Compound | inhibition at 0.1 µM [%]
N=C(N)NCCC[C@H](NCc1ccccn1)C(=O)NCc1ccc(CNCCCNC2CCCCC2)cc1 [Compound 1] | 75 to 100
N=C(N)NCCC[C@H](NC(=O)c1ccc(F)cc1)C(=O)NCc1ccc(CNCCCNC2CCCCC2)cc1 [Compound 2] | 50 to 74
N=C(N)NCCC[C@H](NCc1ccccn1)C(=O)NCc1ccccc1 [Compound 3] | 0 to 24
N=C(N)NCCC[C@H](NCc1ccccn1)C(=O)NCc1ccc(CNC2CCCCC2)cc1 [Compound 4] | 0 to 24
N=C(N)NCCC[C@H](N)C(=O)NCc1ccc(CNCCCNC2CCCCC2)cc1 [Compound 5] | 25 to 49
N=C(N)NCCC[C@@H](NCc1ccccn1)C(=O)NCc1ccc(CNCCCNC2CCCCC2)cc1 [Compound 6] | 50 to 74
N=C(N)NCCC[C@H](NC(=O)C1CCC(F)(F)CC1)C(=O)NCc1ccc(CNCCCNC2CCCCC2)cc1 [Compound 7] | 50 to 74
N=C(N)NCCC[C@H](NCc1ccc(F)cc1)C(=O)NCc1ccc(CNCCCNC2CCCCC2)cc1 [Compound 8] | 50 to 74
CN(C)c1ccc(CN[C@@H](CCCNC(=N)N)C(=O)NCc2ccc(CNCCCNC3CCCCC3)cc2)cc1 [Compound 9] | 75 to 100
N=C(N)NCCC[C@H](NCc1cccc2ccccc12)C(=O)NCc1ccc(CNCCCNC2CCCCC2)cc1 [Compound 10] | 50 to 74
N=C(N)NCCC[C@H](NCc1ccc(-c2ccccc2)cc1)C(=O)NCc1ccc(CNCCCNC2CCCCC2)cc1 [Compound 11] | 50 to 74
N=C(N)NCCC[C@H](NCc1cc(C(F)(F)F)cc(C(F)(F)F)c1)C(=O)NCc1ccc(CNCCCNC2CCCCC2)cc1 [Compound 12] | 0 to 24
N=C(N)NCCC[C@H](NCc1ncc[nH]1)C(=O)NCc1ccc(CNCCCNC2CCCCC2)cc1 [Compound 13] | 50 to 74
N=C(N)NCCC[C@H](NC1CCCc2cccnc21)C(=O)NCc1ccc(CNCCCNC2CCCCC2)cc1 (some centres unmarked) [Compound 14] | 0 to 24
N=C(N)NCCC[C@H](NC1CCCCC1)C(=O)NCc1ccc(CNCCCNC2CCCCC2)cc1 [Compound 15] | 50 to 74
N=C(N)NCCC[C@H](NCC1CCCCC1)C(=O)NCc1ccc(CNCCCNC2CCCCC2)cc1 [Compound 16] | 75 to 100
NCCCC[C@H](NCc1ccccn1)C(=O)NCc1ccc(CNCCCNC2CCCCC2)cc1 [Compound 17] | 75 to 100
CC(C)NCCCC[C@H](NCc1ccccn1)C(=O)NCc1ccc(CNCCCNC2CCCCC2)cc1 [Compound 18] | 75 to 100
N=C(N)NCCC[C@H](NC(=O)[C@@H](N)Cc1ccc(O)cc1)C(=O)NCc1ccc(CNCCCNC2CCCCC2)cc1 [Compound 31] | 75 to 100

Continued, values first:

inhibition at 0.1 µM [%] | Compound
75 to 100 | O=C(NCc1ccc(CNCCCNC2CCCCC2)cc1)[C@H](CCCCNC1CCCCC1)NCc1ccccn1 [Compound 19]
50 to 74 | O=C(NCc1ccc(CNCCCNC2CCCCC2)cc1)[C@H](CCCNC1CCCCC1)NCc1ccccn1 [Compound 20]
75 to 100 | O=C(NCc1ccc(CNCCCNC2CCCCC2)cc1)[C@H](Cc1c[nH]cn1)NCc1ccccn1 [Compound 21]
50 to 74 | O=C(O)C[C@H](NCc1ccccn1)C(=O)NCc1ccc(CNCCCNC2CCCCC2)cc1 [Compound 22]
75 to 100 | C[C@H](NCc1ccccn1)C(=O)NCc1ccc(CNCCCNC2CCCCC2)cc1 [Compound 23]
75 to 100 | O=C(NCc1ccc(CNCCCNC2CCCCC2)cc1)[C@H](CO)NCc1ccccn1 [Compound 24]
50 to 74 | O=C(NCc1ccc(CNCCCNC2CCCCC2)cc1)[C@H](Cc1ccc2ccccc2c1)NCc1ccccn1 [Compound 25]
75 to 100 | O=C(NCc1ccc(CNCCCNC2CCCCC2)cc1)[C@H](Cc1c[nH]c2ccccc12)NCc1ccccn1 [Compound 26]
50 to 74 | O=C(NCc1ccc(CNCCCNC2CCCCC2)cc1)[C@H](Cc1ccc(O)cc1)NCc1ccccn1 [Compound 27]
25 to 49 | CC(C)C[C@H](NCc1ccccn1)C(=O)NCc1ccc(CNCCCNC2CCCCC2)cc1 [Compound 28]
75 to 100 | O=C(NCc1ccc(CNCCCNC2CCCCC2)cc1)[C@@H]1CCCN1Cc1ccccn1 [Compound 29]
75 to 100 | O=C(NCc1ccc(CNCCCNC2CCCCC2)cc1)[C@@H]1Cc2ccccc2CN1Cc1ccccn1 [Compound 30]
75 to 100 | N=C(N)NCCC[C@H](N)C(=O)N[C@@H](Cc1ccc2ccccc2c1)C(=O)NCc1ccc(CNCCCNC2CCCCC2)cc1 [Compound 32]

Target: T1, CXCR4
Assay: Inhibition of CXCR4 induced cell migration (SupT1 cells, SDF-1α, transwell)
Assay type: cell-based
Conditions: 2 nM SDF-1α, concentration-dependent, FIG. 1
Protocol: 1. Experimental method: the assay on the CXCR4 induced cell migration was detected using SupT1 cell line which naturally expresses the CXCR4. SupT1 cells cultured and suspended in RPMI 1640 (containing 10% fetal bovine serum, 100 IU penicillin and 0.1 mg/ml streptomycin) were collected and then washed with RPMI 1640 containing 0.5% BSA, after which the cells are counted and suspended to a concentration of 3.0×10^7 cells/ml, and then uniformly mixed with different concentrations of compound. Then, 75 μl of the obtained mixture was taken and added to a tranwell insert, and incubated at 37° C. for 30 min. […] After incubation at 37° C. for 3 hours, the tranwell insert was removed, and 40 μl of CellTiter 96 (Promega) was added to each cell of the lower culture plate. After 1 to 4 hours of incubation, absorption values at 490 nm were detected. The experimental results of each group were obtained by at least three independent experiments, and the inhibition curve was plotted by the GraphPad software. 2.

Inhibition of CXCR4 induced cell migration | Compound
significant inhibiting ability | N=C(N)NCCC[C@H](NCc1ccccn1)C(=O)NCc1ccc(CNCCCNC2CCCCC2)cc1 [Compound 1]
